Read-outs that look alike come from different tables or passages of the source.
What was measured:
[1] = target: T1, human dopamine D2L receptors (long isoform) (Homo sapiens, UniProt P14416); test: Dopamine D2L receptor binding, displacement of [125I]-iodospiperone; details: Ki(D2L)/Ki(D3); human D2L and D3 receptors in HEK-293 membranes
T1 construct: expressed in transfected cells; membranes used
Procedure: (§1) C) Biological Investigations—Receptor-Binding Studies: • The substance to be tested was dissolved either in methanol/Chremophor®) (BASF-AG) or in dimethyl sulfoxide and then diluted with water to the desired concentration.
II. Dopamine D2L receptor: • The mixture (1 ml) was composed of membranes from ˜10^6 HEK-293 cells with stably expressed human dopamine D2L receptors (long isoform) and 0.01 nM [^125I]-iodospiperone and incubation buffer (total binding) or additionally test substance (inhibition plot) or 1 μM haloperidol (nonspecific binding). Triplicate assays were carried out. • The incubation buffer contained 50 mM Tris, 120 mM NaCl, 5 mM KCl, 2 mM CaCl2, 2 mM MgCl2 and 0.1% bovine serum albumin. The buffer was adjusted to 7.4 with HCl.
(§2) III. Measurement and Evaluation: • After incubation at 25° C. for 60 minutes, the mixtures were filtered through Wathman GF/B glass fiber filters under vacuum using a cell harvester. The filters were transferred using a filter transfer system into scintillation vials. After addition of 4 ml of Ultima Gold® (Packard), the samples were shaken for one hour and then the radioactivity was counted in a Beta Counter (Packard, Tricarb 2000 or 2200CA). The cp values were converted into dpm on the basis of a standard quench series with the aid of the program supplied with the instrument. • The inhibition plots were evaluated by iterative nonlinear regression analysis using the Statistical Analysis System (SAS), similar to the “LIGAND” program described by Munson and Rodbard. • The compounds of the invention show very good affinities for the D3 receptor in these assays (<100 nM, frequently <50 nM) and bind selectively to the D3 receptor.

[2] = target: T2, human dopamine D3 receptors (Homo sapiens, UniProt P35462); test: Dopamine D3 receptor binding, displacement of [125I]-iodosulpride
T2 construct: expressed in transfected cells; membranes used
T2 sequence (P35462 whole entry): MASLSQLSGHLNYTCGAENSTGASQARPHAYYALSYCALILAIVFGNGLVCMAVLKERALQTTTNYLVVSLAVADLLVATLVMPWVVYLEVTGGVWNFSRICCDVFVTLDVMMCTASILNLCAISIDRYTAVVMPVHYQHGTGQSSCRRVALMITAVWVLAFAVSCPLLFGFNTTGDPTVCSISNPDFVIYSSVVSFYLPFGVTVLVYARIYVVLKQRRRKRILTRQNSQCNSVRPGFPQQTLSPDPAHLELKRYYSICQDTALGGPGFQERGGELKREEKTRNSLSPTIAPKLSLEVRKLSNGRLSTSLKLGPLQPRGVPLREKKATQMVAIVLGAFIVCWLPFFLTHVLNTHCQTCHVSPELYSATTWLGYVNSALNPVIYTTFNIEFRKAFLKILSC
Procedure: as §1
I. Dopamine D3 Receptor: • The mixture (0.250 ml) was composed of membranes from ˜10^6 HEK-293 cells with stably expressed human dopamine D3 receptors, 0.1 nM [^125I]-iodosulpride and incubation buffer (total binding) or additionally test substance (inhibition plot) or 1 μM spiperone (nonspecific binding). Triplicate assays were carried out. • The incubation buffer contained 50 mM Tris, 120 mM NaCl, 5 mM KCl, 2 mM CaCl2, 2 mM MgCl2 and 0.1% bovine serum albumin, 10 μM quinolone, 0.1% ascorbic acid (prepared freshly each day). The buffer was adjusted to pH 7.4 with HCl.
as §2

[3] = membranes from HEK-293 cells with stably expressed human dopamine D3 receptors, 0.1 nM [125I]-iodosulpride, 25° C., 60 minutes, read-out: Ki (D3)

T1 sequence (P14416 whole entry, canonical isoform): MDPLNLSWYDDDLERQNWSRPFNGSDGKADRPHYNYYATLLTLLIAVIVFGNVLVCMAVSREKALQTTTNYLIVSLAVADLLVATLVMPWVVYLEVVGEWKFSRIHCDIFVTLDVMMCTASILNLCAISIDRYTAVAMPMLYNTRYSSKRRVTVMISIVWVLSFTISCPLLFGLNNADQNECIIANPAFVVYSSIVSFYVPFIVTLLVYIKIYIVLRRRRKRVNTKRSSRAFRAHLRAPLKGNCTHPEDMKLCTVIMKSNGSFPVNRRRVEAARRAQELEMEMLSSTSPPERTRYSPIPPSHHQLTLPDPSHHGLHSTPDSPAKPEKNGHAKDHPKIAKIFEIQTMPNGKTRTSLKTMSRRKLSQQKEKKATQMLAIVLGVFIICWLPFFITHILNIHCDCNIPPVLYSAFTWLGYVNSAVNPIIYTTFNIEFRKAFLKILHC

Row | SMILES | Selectivity vs. D2L* [1] | Ki [2, 3] | Ki [2]
1 | CCCN1CCc2ccc(NS(=O)(=O)c3ccc(OC(F)(F)F)cc3)cc2CC1 [Example 2, N-(3-Propyl-2,3,4,5-Tetrahydro-1H-3-Benzazepin-7-yl)-4-Trifluoromethoxy-Benzenesulfonamide] | 99 | 7.1 nM | 
2 | CCCN1CCc2ccc(NS(=O)(=O)c3ccc(Cl)cc3)cc2CC1 [Example 3, 4-Chloro-N-(3-Propyl-2,3,4,5-Tetrahydro-1H-3-Benzazepin-7-yl)Benzenesulfonamide] | 68 | 4.1 nM | 
3 | CCCN1CCc2ccc(NS(=O)(=O)c3ccc(C)cc3)cc2CC1.O=C(O)C(F)(F)F [Example 11, 4-Methyl-N-(3-Propyl-2,3,4,5-Tetrahydro-1H-3-Benzazepin-7-yl)Benzene Sulfonamide Trifluoroacetate] | 112 |  | 4.7 nM
4 | CCCN1CCc2ccc(NS(=O)(=O)c3c(C)cc(C)cc3C)cc2CC1.O=C(O)C(F)(F)F [Example 12, 2,4,6-Trimethyl-N-(3-Propyl-2,3,4,5-Tetrahydro-1H-3-Benzazepin-7-yl)-Benzenesulfonamide Trifluoroacetate] | 90 | 7.2 nM | 
5 | CCCCc1ccc(S(=O)(=O)Nc2ccc3c(c2)CCN(CCC)CC3)cc1.O=C(O)C(F)(F)F [Example 13, 4-Butyl-N-(3-Propyl-2,3,4,5-Tetrahydro-1H-3-Benzazepin-7-yl)Benzene-Sulfonamide Trifluoroacetate] | 143 | 0.6 nM | 
6 | CCCN1CCc2ccc(NS(=O)(=O)c3ccc(C(C)(C)CC)cc3)cc2CC1.O=C(O)C(F)(F)F [Example 14, 4-(1,1-Dimethylpropyl)-N-(3-Propyl-2,3,4,5-Tetrahydro-1H-3-Benzazepin-7-yl)Benzenesulfonamide Trifluoroacetate] | 113 | 3.6 nM | 
7 | CCCN1CCc2ccc(NS(=O)(=O)c3ccc(OC)cc3)cc2CC1.O=C(O)C(F)(F)F [Example 16, 4-Methoxy-N-(3-Propyl-2,3,4,5-Tetrahydro-1H-3-Benzazepin-7-yl)Benzene-Sulfonamide Trifluoroacetate] | 142 | 8.1 nM | 
8 | CCCN1CCc2ccc(NS(=O)(=O)c3ccc4ccccc4c3)cc2CC1.O=C(O)C(F)(F)F [Example 17, N-(3-Propyl-2,3,4,5-Tetrahydro-1H-3-Benzazepin-7-yl)Naphthalene-2-Sulfonamide Trifluoroacetate] | 68 | 4.5 nM | 
9 | CCCN1CCc2ccc(NS(=O)(=O)c3ccc(Cl)cc3Cl)cc2CC1.O=C(O)C(F)(F)F [Example 18, 2,4-Dichloro-N-(3-Propyl-2,3,4,5-Tetrahydro-1H-3-Benzazepin-7-yl)Benzenesulfonamide Trifluoroacetate] | 85 | 7.3 nM | 
10 | CCCN1CCc2ccc(NS(=O)(=O)c3ccc(Br)cc3)cc2CC1.O=C(O)C(F)(F)F [Example 19, 4-Bromo-N-(3-Propyl-2,3,4,5-Tetrahydro-1H-3-Benzazepin-7-yl)Benzene-Sulfonamide Trifluoroacetate] | 65 |  | 3 nM
11 | CCCN1CCc2ccc(NS(=O)(=O)c3ccc(Br)cc3C)cc2CC1.O=C(O)C(F)(F)F [Example 20, 4-Bromo-2-Methyl-N-(3-Propyl-2,3,4,5-Tetrahydro-1H-3-Benzazepin-7-yl)-Benzenesulfonamide Trifluoroacetate] | 85 | 7.1 nM | 
12 | CCCN1CCc2ccc(NS(=O)(=O)c3ccc(Cl)s3)cc2CC1.O=C(O)C(F)(F)F [Example 21, N-(3-Propyl-2,3,4,5-Tetrahydro-1H-3-Benzazepin-7-yl)-5-Chlorothiophene-2-Sulfonamide Trifluoroacetate] | 47 |  | 16 nM
13 | CCCN1CCc2ccc(NS(=O)(=O)c3cc(Cl)sc3Cl)cc2CC1.O=C(O)C(F)(F)F [Example 22, N-(3-Propyl-2,3,4,5-Tetrahydro-1H-3-Benzazepin-7-yl)-2,5-Dichlorothiophene-3-Sulfonamide Trifluoroacetate] | 46 |  | 13 nM
14 | CCCN1CCc2ccc(N(C)S(=O)(=O)c3ccc(C(C)C)cc3)cc2CC1.O=C(O)C(F)(F)F [Example 31, 4-Isopropyl-N-Methyl-N-(3-Propyl-2,3,4,5-tetrahydro-1H-3-Benzazepin-7-yl)Benzenesulfonamide Trifluoroacetate] | 63 | 1 nM | 

Now from value to compound, other results behind:

Row | Selectivity vs. D2L* [1] | Ki [2, 3] | SMILES | Ki [2]
15 | 435 | 0.5 nM | C=Cc1ccc(S(=O)(=O)Nc2ccc3c(c2)CCN(CCC)CC3)cc1.Cl [Example 4, N-(3-Propyl-2,3,4,5-Tetrahydro-1H-3-Benzazepin-7-yl)-4-Vinylbenzenesulfonamide Hydrochloride] | 
16 | 368 | 1 nM | CCCN1CCc2ccc(NS(=O)(=O)c3ccc(CC)cc3)cc2CC1.Cl [Example 5, 4-Ethyl-N-(3-Propyl-2,3,4,5-Tetrahydro-1H-3-Benzazepin-7-yl)Benzenesulfonamide Hydrochloride] | 
17 | 252 | 5.8 nM | CCCN1CCc2ccc(NS(=O)(=O)c3ccc(C(F)(F)F)cc3)cc2CC1.Cl [Example 6, N-(3-Propyl-2,3,4,5-Tetrahydro-1H-3-Benzazepin-7-yl)-4-(Trifluoromethyl)-Benzenesulfonamide Hydrochloride] | 
18 | 120 | 4.1 nM | CCCN1CCc2ccc(NS(=O)(=O)c3ccc(C(C)(C)C)cc3)cc2CC1.Cl [Example 7, 4-Tert-Butyl-N-(3-Propyl-2,3,4,5-Tetrahydro-1H-3-Benzazepin-7-yl)Benzenesulfonamide Hydrochloride] | 
19 | 330 | 0.3 nM | CCCN1CCc2ccc(NS(=O)(=O)c3ccc(C(C)C)cc3)cc2CC1.Cl [Example 8, 4-Isopropyl-N-(3-Propyl-2,3,4,5-Tetrahydro-1H-3-Benzazepin-7-yl)Benzenesulfonamide Hydrochloride] | 
20 | 271 | 16.5 nM | CCCN1CCc2ccc(NS(=O)(=O)c3ccc(C(C)=O)cc3)cc2CC1 [Example 10, 4-Acetyl-N-(3-Propyl-2,3,4,5-Tetrahydro-1H-3-Benzazepin-7-yl)Benzenesulfonamide] | 
21 | 40 | 28.2 nM | CCCN1CCc2ccc(S(=O)(=O)Nc3ccc(OC(F)(F)F)cc3)cc2CC1.Cl [Example 35, 3-Propyl-N-[4-(Trifluoromethoxy)Phenyl]-2,3,4,5-Tetrahydro-1H-3-Benzazepine-7-Sulfonamide Hydrochloride] | 
22 | 446 | 1 nM | CCCN1CCc2ccc(CS(=O)(=O)c3ccc(C(C)C)cc3)cc2CC1 [Example 36, 7-(4-Isopropylbenzenesulfonylmethyl)-3-Propyl-2,3,4,5-Tetrahydro-1H-3-Benzazepine] | 
23 | 66 | 1.2 nM | CC(C)c1ccc(S(=O)(=O)Nc2ccc3c(c2)CCN(C)CC3)cc1.Cl [Example 56, 4-Isopropyl-N-(3-Methyl-2,3,4,5-Tetrahydro-1H-3-Benzazepin-7-yl)Benzenesulfonamide Hydrochloride] | 
24 | 115 | 2.1 nM | CC(C)c1ccc(S(=O)(=O)Nc2ccc3c(c2)CCN(CC2CC2)CC3)cc1.Cl [Example 57, N-(3-Cyclopropylmethyl-2,3,4,5-Tetrahydro-1H-3-Benzazepin-7-yl)4-Isopropylbenzenesulfonamide Hydrochloride] | 
25 | 84 | 3.4 nM | C=CCN1CCc2ccc(NS(=O)(=O)c3ccc(C(F)(F)F)cc3)cc2CC1.Cl [Example 58, N-(3-Allyl-2,3,4,5-Tetrahydro-1H-3-Benzazepin-7-yl)4-(Trifluoromethyl)Benzenesulfonamide Hydrochloride] | 
26 | 141 | 0.4 nM | C=CCN1CCc2ccc(NS(=O)(=O)c3ccc(C(C)C)cc3)cc2CC1.Cl [Example 65, N-(3-Allyl-2,3,4,5-Tetrahydro-1H-3-Benzazepin-7-yl)-4-(Isopropyl)Benzenesulfonamide Hydrochloride] | 
27 | 146 | 1.2 nM | CC(C)c1ccc(S(=O)(=O)Nc2ccc3c(c2)CCN(CCCF)CC3)cc1.Cl [Example 66, N-[3-(3-Fluoropropyl)-2,3,4,5-Tetrahydro-1H-3-Benzazepin-7-yl]-4-Isopropylbenzenesulfonamide Hydrochloride] | 
